Reference: publication PMC11468809, “An Outer Membrane Vesicle‐Based Permeation Assay (OMPA) for Assessing Bacterial Bioavailability” (Advanced Healthcare Materials, 2021)

Tests used:
[1] = Membrane permeabilization experiment on OMV-derived membrane; assay type: in vitro ADME, Escherichia coli; settings: for effect of membrane-perturbating agent on the OMV-derived model: permeability of fusidic acid or fluorescein as readout
Method: Experiments were conducted on OMVs of E. coli BL21 DE3 Omp8 as stated above with some modifications. […] After 30 min, solutions were removed and the standard protocol was followed employing 200 × 10^−6 M fusidic acid solution and sampling after 5, 10, 15, 20, 25, 30, 45, and 60 min. The quantification was done via LC–MS/MS.
(§1) Afterward 240 µL of 10 × 10^−6 M fluorescein solution in PBS (pH 7.4) was added and 40 µL samples were drawn after 5, 10, 15, 20, 25, 30, 45, and 60 min and diluted 1 in 5 prior to fluorimetric quantification (λ ex = 485 nm, λ em = 530 nm).

[2] = Permeation across porin-deficient E. coli BL21 DE3 Omp8 OMV-derived membrane model; settings: standard permeation assay, 200 × 10^−6 M
Method: (§2) 30 µL of the OMV or liposome suspension were given on top of membrane filters of a 96‐well filter plate (MultiScreen 96‐well filter plates with 0.4 µm PCTE membrane). Afterwards, filters were dried at 37°C inside a Memmert UF55 universal oven (fan at 100%). This process was repeated another two times. A six‐fold coating procedure was only followed for SEM‐imaging purposes. For permeation studies, the obtained coatings were covered with 40 µl of 0.5% w/v agarose solution using a direct diplacement pipette. Prior to permeation studies, the bottom of the coated filter was also coated with a thin film of 0.5% w/v agarose using a small brush.
(§3) Coated wells were incubated on the apical and basolateral side for 30 min with PBS (pH 7.4) at 37°C while shaken at 180 rpm. After incubation, 230 µL of pre‐warmed 200 × 10^−6 M antibiotic donor solution (37°C) replaced the PBS in the respective donor wells, while 30 µL were immediately removed and diluted 1:10. The absorbance of these dilutions was measured in a receiver plate using a Tecan Infinite 200 PRO (Tecan Trading AG, Maennedorf, Switzerland) plate reader. (Table S1, Supporting Information) 300 µL of fresh PBS were given into the acceptor wells of the receiver plate followed by absorbance measurements. Donor and acceptor plates were reassembled, incubated, and disassembled after 10, 20, 30, 45, 60, 90, and 120 min to measure the absorbance in the acceptor wells.

[3] = Membrane permeabilization experiment on bacteriomimetic liposome-derived model; assay type: in vitro ADME; settings: fluorescein 10 × 10^−6 M after 30 min incubation with 83.1 × 10^−6 M PMB vs PBS
Method: as §1

[4] = not told
Method: as §2
as §3, with “After incubation, 230 µL of pre‐warmed 200 × 10^−6 M antibiotic donor solution (37°C) replaced the PBS in the respective donor wells, while 30 µL were immediately removed and diluted 1:10.” left out

[5] = Comparison of P app among four vesicle-derived membrane models; assay type: in vitro ADME; settings: 200 × 10^−6 M; Figure 11
From the text: This process was repeated another two times.

[6] = Porin-blocking experiment with spermine on porin-containing membrane model; settings: 15 × 10^−6 M norfloxacin, 140 × 10^−3 M spermine; Figure 10B
Method: (§4) Experiments were performed on OMVs of E. coli strains BL21 DE3 and BL21 DE3 Omp8. The procedure followed the standard protocol for permeability studies with some modifications. The membranes were incubated on both sides for 30 min either with 140 × 10^−3 M spermine solution in PBS (pH7.4) or blank PBS. […] Samples of 40 µL were taken after 5, 10, 15, 20, 25, and 30 min and analyzed by LC–MS/MS.
(§5) An Accela UHPLC System‐Coupled TSQ Quantum Access Max tandem quadrupole mass spectrometer (both from Thermo Fisher Scientific, Waltham, MA, USA) was employed. The entire system was operated via Xcalibur 219 software (Thermo Fisher Scientific, Waltham, MA, USA). The detection of the compounds in the MS happened after heated electrospray ionization (H‐ESI) in positive ion mode. The chromatographic analysis was performed with a binary solvent mixture using optionally acetonitrile + 0.1% formic acid (A), MilliQ‐water + 0.1% formic acid (B), methanol + 0.1% formic acid (C), or ammonium formate buffer (10 × 10^−3 M, pH 3, D). […]
(§6) Raw data obtained from the respective analytical readouts of transport studies were converted to their corresponding concentration via external calibration. […]
(§7) The apparent permeability coefficient (P app) was calculated according to the following formula: (2) Pappcm∗s^−1=J/c0 where c 0 is the initial donor concentration (µg cm^− ^3) and J (µg cm^− ^2*s) the compound flux.

[7] = Porin-blocking experiment with spermine on porin-deficient membrane model; settings: 15 × 10^−6 M norfloxacin, no spermine
Method: as §4, §5, §6, §7

[8] = Impact of agarose gel and vesicle coating on compound permeation; settings: P app; 0.5% w/v agarose gel; Figure 7
Method: as §2, §3

CC(=O)O[C@H]1C[C@@]2(C)[C@@H](C[C@@H](O)[C@H]3[C@@]4(C)CC[C@@H](O)[C@@H](C)[C@@H]4CC[C@@]32C)/C1=C(\CCC=C(C)C)C(=O)O [Fusidic acid]
change in permeability after membrane-perturbating agent ([1]; fusidic acid 200 × 10^−6 M after 30 min incubation with 103.8 × 10^−6 M PMBN vs PBS): none of the membrane‐perturbating agents caused significant changes

O=C(N[C@H](CO)[C@H](O)c1ccc([N+](=O)[O-])cc1)C(Cl)Cl [chloramphenicol]
permeability compared with the porin-containing BL21 DE3 OMV-derived model [2]: did not lead to a significant drop of permeation

O=C1OC2(c3ccc(O)cc3Oc3cc(O)ccc32)c2ccccc21 [fluorescein]
permeation after treatment with PMB [3]: permeated significantly slower
change in permeability after membrane-perturbating agent ([1]; fluorescein 10 × 10^−6 M after 30 min incubation with 83.1 × 10^−6 M PMB vs PBS): none of the membrane‐perturbating agents caused significant changes

CCn1cc(C(=O)O)c(=O)c2ccc(C)nc21 [nalidixic acid]
permeability across the eukaryotic membrane model compared with the other models [4]: increased
difference in permeability throughout the OMV- and the bacteriomimetic liposome-based model [5]: no significant difference

CCn1cc(C(=O)O)c(=O)c2cc(F)c(N3CCNCC3)cc21 [norfloxacin]
permeability compared with the porin-containing BL21 DE3 OMV-derived model [2]: lower
permeability coefficients in presence vs absence of spermine [6]: significantly different
permeability compared with the porin-containing model [7]: significantly decreased permeability

CO[C@@H]1[C@@H](OC(N)=O)[C@@H](O)[C@H](Oc2ccc3c(O)c(NC(=O)c4ccc(O)c(CC=C(C)C)c4)c(=O)oc3c2C)OC1(C)C [novobiocin]
permeability with the vesicle coating compared to pure agarose gel coating [8]: significantly lower

CO[C@H]1/C=C/O[C@@]2(C)Oc3c(C)c(O)c4c(O)c(c(/C=N/N5CCN(C)CC5)c(O)c4c3C2=O)NC(=O)/C(C)=C\C=C\[C@H](C)[C@H](O)[C@@H](C)[C@@H](O)[C@@H](C)[C@H](OC(C)=O)[C@@H]1C [rifampicin]
permeability with the vesicle coating compared to pure agarose gel coating [8]: significantly lower
permeability across the eukaryotic membrane model compared with the other models [4]: comparable permeability
difference in permeability throughout the OMV- and the bacteriomimetic liposome-based model [5]: no significant difference

CN(C)[C@@H]1C(O)=C(C(N)=O)C(=O)[C@@]2(O)C(O)=C3C(=O)c4c(O)cccc4[C@@](C)(O)[C@H]3C[C@@H]12 [tetracycline]
permeability compared with the porin-containing BL21 DE3 OMV-derived model [2]: did not lead to a significant drop of permeation
permeability with the vesicle coating compared to pure agarose gel coating [8]: significantly lower

CN[C@H](CC(C)C)C(=O)N[C@H]1C(=O)N[C@@H](CC(N)=O)C(=O)N[C@H]2C(=O)N[C@H]3C(=O)N[C@H](C(=O)N[C@H](C(=O)O)c4cc(O)cc(O)c4-c4cc3ccc4O)[C@H](O)c3ccc(c(Cl)c3)Oc3cc2cc(c3O[C@@H]2O[C@H](CO)[C@@H](O)[C@H](O)[C@H]2O[C@H]2C[C@](C)(N)[C@H](O)[C@H](C)O2)Oc2ccc(cc2Cl)[C@H]1O [vancomycin]
trend of permeability the fewer outer membrane features the model has [5]: gradual decrease of permeability

PMB nonapeptide [PMBN]
effect of membrane-perturbating agent on the OMV-derived model [1]: lack of effect

Polymyxin B [PMB]
effect of membrane-perturbating agent on the OMV-derived model [1]: lack of effect
